Results as given in patent US12338220B2, “Antiviral pyrazolopiridinone compounds” (Novartis AG, priority 2019, dated 2025).
Where two headings read alike, the source gives them in different places.

Key:
CMV-polymerase = CMV-polymerase (Human cytomegalovirus (strain AD169) (HHV-5) (Human herpesvirus 5), UniProt P08546); assay: biochemical
CMV = assay: microbe, parasite or virus in culture; type: cell-based; details: Human betaherpesvirus 5, 72 h, read-out: CMV-Luc Cellular EC50, NN-NHDF cells, MOI 1, 72 hrs
[1] = read-out: CMV-polymerase Biochemical IC50
[2] = CMV-polymerase Biochemical IC50

Cn1nc(C(=O)NCc2ccc(C#N)cc2)c2c1C(=O)N(CC1(S(=O)(=O)N3CCC(C)(O)C3)CC1)CC2 (single isomer, unassigned) [Example 130, (R)- or (S)-N-(4-Cyanobenzyl)-6-((1-((3-hydroxy-3-methylpyrrolidin-1-yl)sulfonyl)cyclopropyl)methyl)-1-methyl-7-oxo-4,5,6,7-tetrahydro-1H-pyrazolo[3,4-c]pyridine-3-carboxamide]
IC50 (CMV-polymerase; [1]): 7 nM
EC50 (CMV): 163 nM

Cn1nc(C(=O)NCc2ccc(F)cc2)c2c1C(=O)N(CC1(S(=O)(=O)C3CC3)CC1)CC2 [Example 5, 6-((1-(Cyclopropylsulfonyl)cyclopropyl)methyl)-N-(4-fluorobenzyl)-1-methyl-7-oxo-4,5,6,7-tetrahydro-1H-pyrazolo[3,4-c]pyridine-3-carboxamide]
IC50 (CMV-polymerase; [1]): 30 nM
EC50 (CMV): 284 nM

CN(Cc1ccc(C#N)cc1)C(=O)c1nn(C)c2c1CCN(CC1(S(=O)(=O)C3CC3)CC1)C2=O [Example 6, N-(4-Cyanobenzyl)-6-((1-(cyclopropylsulfonyl)cyclopropyl)methyl)-N,1-dimethyl-7-oxo-4,5,6,7-tetrahydro-1H-pyrazolo[3,4-c]pyridine-3-carboxamide]
IC50 (CMV-polymerase; [1]): 30 nM
EC50 (CMV): 770 nM

Cc1ccc(CNC(=O)c2nn(C)c3c2CCN(CC2(S(=O)(=O)C4CC4)CC2)C3=O)cc1 [Example 8, 6-((1-(Cyclopropylsulfonyl)cyclopropyl)methyl)-1-methyl-N-(4-methylbenzyl)-7-oxo-4,5,6,7-tetrahydro-1H-pyrazolo[3,4-c]pyridine-3-carboxamide]
IC50 (CMV-polymerase; [1]): 35 nM
EC50 (CMV): 339 nM

Cn1nc(C(=O)NCc2ccc(C#N)c(F)c2)c2c1C(=O)N(CC1(S(=O)(=O)C3CC3)CC1)CC2 [Example 9, N-(4-Cyano-3-fluorobenzyl)-6-((1-(cyclopropylsulfonyl)cyclopropyl)methyl)-1-methyl-7-oxo-4,5,6,7-tetrahydro-1H-pyrazolo[3,4-c]pyridine-3-carboxamide]
IC50 (CMV-polymerase; [1]): 1 nM
EC50 (CMV): 31 nM

Cn1nc(C(=O)NCc2ccc(Cl)s2)c2c1C(=O)N(CC1(S(=O)(=O)C3CC3)CC1)CC2 [Example 10, N-((5-Chlorothiophen-2-yl)methyl)-6-((1-(cyclopropylsulfonyl)cyclopropyl)methyl)-1-methyl-7-oxo-4,5,6,7-tetrahydro-1H-pyrazolo[3,4-c]pyridine-3-carboxamide]
IC50 (CMV-polymerase; [1]): 26 nM
EC50 (CMV): 259 nM

Cc1cc(CNC(=O)c2nn(C)c3c2CCN(CC2(S(=O)(=O)C4CC4)CC2)C3=O)ccc1C#N [Example 11, N-(4-Cyano-3-methylbenzyl)-6-((1-(cyclopropylsulfonyl)cyclopropyl)methyl)-1-methyl-7-oxo-4,5,6,7-tetrahydro-1H-pyrazolo[3,4-c]pyridine-3-carboxamide]
IC50 (CMV-polymerase; [1]): 17 nM
EC50 (CMV): 214 nM

Cc1cc(C#N)ccc1CNC(=O)c1nn(C)c2c1CCN(CC1(S(=O)(=O)C3CC3)CC1)C2=O [Example 12, N-(4-Cyano-2-methylbenzyl)-6-((1-(cyclopropylsulfonyl)cyclopropyl)methyl)-1-methyl-7-oxo-4,5,6,7-tetrahydro-1H-pyrazolo[3,4-c]pyridine-3-carboxamide]
IC50 (CMV-polymerase; [1]): 2 nM
EC50 (CMV): 87 nM

Cn1nc(C(=O)NCc2ccc(C#N)cc2F)c2c1C(=O)N(CC1(S(=O)(=O)C3CC3)CC1)CC2 [Example 13, N-(4-Cyano-2-fluorobenzyl)-6-((1-(cyclopropylsulfonyl)cyclopropyl)methyl)-1-methyl-7-oxo-4,5,6,7-tetrahydro-1H-pyrazolo[3,4-c]pyridine-3-carboxamide]
IC50 (CMV-polymerase; [1]): 6 nM
EC50 (CMV): 102 nM

Cn1nc(C(=O)NCc2ccc(C#N)cn2)c2c1C(=O)N(CC1(S(=O)(=O)C3CC3)CC1)CC2 [Example 14, N-((5-Cyanopyridin-2-yl)methyl)-6-((1-(cyclopropylsulfonyl)cyclopropyl)methyl)-1-methyl-7-oxo-4,5,6,7-tetrahydro-1H-pyrazolo[3,4-c]pyridine-3-carboxamide]
IC50 (CMV-polymerase; [1]): 95 nM
EC50 (CMV): 585 nM

COc1cc(CNC(=O)c2nn(C)c3c2CCN(CC2(S(=O)(=O)C4CC4)CC2)C3=O)ccc1C#N [Example 15, N-(4-Cyano-3-methoxybenzyl)-6-((1-(cyclopropylsulfonyl)cyclopropyl)methyl)-1-methyl-7-oxo-4,5,6,7-tetrahydro-1H-pyrazolo[3,4-c]pyridine-3-carboxamide]
IC50 (CMV-polymerase; [1]): 11 nM
EC50 (CMV): 162 nM

C[C@H](NC(=O)c1nn(C)c2c1CCN(CC1(S(=O)(=O)C3CC3)CC1)C2=O)c1ccc(C#N)cc1 [Example 16, (S)-N-(1-(4-Cyanophenyl)ethyl)-6-((1-(cyclopropylsulfonyl)cyclopropyl)methyl)-1-methyl-7-oxo-4,5,6,7-tetrahydro-1H-pyrazolo[3,4-c]pyridine-3-carboxamide]
IC50 (CMV-polymerase; [1]): 13 nM
EC50 (CMV): 170 nM

C[C@@H](NC(=O)c1nn(C)c2c1CCN(CC1(S(=O)(=O)C3CC3)CC1)C2=O)c1ccc(C#N)cc1 [Example 17, (R)-N-(1-(4-Cyanophenyl)ethyl)-6-((1-(cyclopropylsulfonyl)cyclopropyl)methyl)-1-methyl-7-oxo-4,5,6,7-tetrahydro-1H-pyrazolo[3,4-c]pyridine-3-carboxamide]
IC50 (CMV-polymerase; [1]): 16900 nM
EC50 (CMV): > 10000 nM

Cn1nc(C(=O)N[C@@H](CO)c2ccc(Cl)cc2)c2c1C(=O)N(CC1(S(=O)(=O)C3CC3)CC1)CC2 [Example 18, (R)-N-(1-(4-Chlorophenyl)-2-hydroxyethyl)-6-((1-(cyclopropylsulfonyl)cyclopropyl)methyl)-1-methyl-7-oxo-4,5,6,7-tetrahydro-1H-pyrazolo[3,4-c]pyridine-3-carboxamide]
IC50 (CMV-polymerase; [1]): 22 nM
EC50 (CMV): 301 nM

Cn1nc(C(=O)N[C@H](CO)c2ccc(Cl)cc2)c2c1C(=O)N(CC1(S(=O)(=O)C3CC3)CC1)CC2 [Example 19, (S)-N-(1-(4-Chlorophenyl)-2-hydroxyethyl)-6-((1-(cyclopropylsulfonyl)cyclopropyl)methyl)-1-methyl-7-oxo-4,5,6,7-tetrahydro-1H-pyrazolo[3,4-c]pyridine-3-carboxamide]
IC50 (CMV-polymerase; [1]): 55 nM
EC50 (CMV): > 10000 nM

CCS(=O)(=O)C1(CN2CCc3c(C(=O)NCc4ccc(C#N)cc4)nn(C)c3C2=O)CC1 [Example 20, N-(4-Cyanobenzyl)-6-((1-(ethylsulfonyl)cyclopropyl)methyl)-1-methyl-7-ox0-4,5,6,7-tetrahydro-1 H-pyrazolo[3,4-c]pyridine-3-carboxamide]
IC50 (CMV-polymerase; [1]): 6 nM
EC50 (CMV): 106 nM

Cn1nc(C(=O)NCc2ccc(C#N)cc2)c2c1C(=O)N(CC1(S(C)(=O)=O)CC1)CC2 [Example 21, N-(4-Cyanobenzyl)-1-methyl-6-((1-(methylsulfonyl)cyclopropyl)methyl)-7-oxo-4,5,6,7-tetrahydro-1 H-pyrazolo[3,4-c]pyridine-3-carboxamide]
IC50 (CMV-polymerase; [1]): 9 nM
EC50 (CMV): 147 nM

Cn1nc(C(=O)NCc2ccc(Cl)cc2)c2c1C(=O)N(CC1(S(C)(=O)=O)CC1)CC2 [Example 22, N-(4-Chlorobenzyl)-1-methyl-6-((1-(methylsulfonyl)cyclopropyl)methyl)-7-oxo-4,5,6,7-tetrahydro-1H-pyrazolo[3,4-c]pyridine-3-carboxamide]
IC50 (CMV-polymerase; [1]): 12 nM
EC50 (CMV): 113 nM

Cn1nc(C(=O)NCc2ccc(C#N)c(F)c2)c2c1C(=O)N(CC1(S(C)(=O)=O)CC1)CC2 [Example 23, N-(4-Cyano-3-fluorobenzyl)-1-methyl-6-((1-(methylsulfonyl)cyclopropyl)methyl)-7-oxo-4,5,6,7-tetrahydro-1H-pyrazolo[3,4-c]pyridine-3-carboxamide]
IC50 (CMV-polymerase; [1]): 7 nM
EC50 (CMV): 86 nM

Cn1nc(C(=O)COc2ccc(C#N)cc2)c2c1C(=O)N(CC1(S(=O)(=O)C3CC3)CC1)CC2 [Example 25, 4-(2-(6-((1-(Cyclopropylsulfonyl)cyclopropyl)methyl)-1-methyl-7-oxo-4,5,6,7-tetrahydro-1H-pyrazolo[3,4-c]pyridin-3-yl)-2-oxoethoxy)benzonitrile]
IC50 (CMV-polymerase; [2]): 2 nM
EC50 (CMV): 30 nM

Cn1nc(-c2nnc(Cc3ccc(C#N)cc3)o2)c2c1C(=O)N(CC1(S(=O)(=O)C3CC3)CC1)CC2 [Example 26, 4-((5-(6-((1-(Cyclopropylsulfonyl)cyclopropyl)methyl)-1-methyl-7-oxo-4,5,6,7-tetrahydro-1H-pyrazolo[3,4-c]pyridin-3-yl)-1,3,4-oxadiazol-2-yl)methyl)benzonitrile]
IC50 (CMV-polymerase; [2]): 52 nM
EC50 (CMV): 761 nM

Cn1nc(-c2nc(Cc3ccc(C#N)cc3)no2)c2c1C(=O)N(CC1(S(=O)(=O)C3CC3)CC1)CC2 [Example 27, 4-((5-(6-((1-(Cyclopropylsulfonyl)cyclopropyl)methyl)-1-methyl-7-oxo-4,5,6,7-tetrahydro-1H-pyrazolo[3,4-c]pyridin-3-yl)-1,2,4-oxadiazol-3-yl)methyl)benzonitrile]
IC50 (CMV-polymerase; [1]): 7 nM
EC50 (CMV): 211 nM

Cn1nc(-c2noc(Cc3ccc(C#N)cc3)n2)c2c1C(=O)N(CC1(S(=O)(=O)C3CC3)CC1)CC2 [Example 28, 4-((3-(6-((1-(Cyclopropylsulfonyl)cyclopropyl)methyl)-1-methyl-7-oxo-4,5,6,7-tetrahydro-1H-pyrazolo[3,4-c]pyridin-3-yl)-1,2,4-oxadiazol-5-yl)methyl)benzonitrile]
IC50 (CMV-polymerase; [2]): 1 nM
EC50 (CMV): 24 nM

Cn1nc(-c2nnn(Cc3ccc(C#N)cc3)n2)c2c1C(=O)N(CC1(S(=O)(=O)C3CC3)CC1)CC2 [Example 29, 4-((5-(6-((1-(Cyclopropylsulfonyl)cyclopropyl)methyl)-1-methyl-7-oxo-4,5,6,7-tetrahydro-1H-pyrazolo[3,4-c]pyridin-3-yl)-2H-tetrazol-2-yl)methyl)benzonitrile]
IC50 (CMV-polymerase; [1]): 1 nM
EC50 (CMV): 80 nM

Cn1nc(-c2nnnn2Cc2ccc(C#N)cc2)c2c1C(=O)N(CC1(S(=O)(=O)C3CC3)CC1)CC2 [Example 30, 4-((5-(6-((1-(cyclopropylsulfonyl)cyclopropyl)methyl)-1-methyl-7-oxo-4,5,6,7-tetrahydro-1H-pyrazolo[3,4-c]pyridin-3-yl)-1H-tetrazol-1-yl)methyl)benzonitrile]
IC50 (CMV-polymerase; [1]): 940 nM
EC50 (CMV): > 10000 nM
